The text below walks through data of US20260248135A1, “HERBICIDAL COMBINATIONS AND A METHOD FOR CONTROLLING UNDESIRED VEGETATION” (UPL Mauritius Limited, priority 2022, published 2026).

Holding throughout (assay type): in vivo
Assay [1] concerns Brachiaria decumbens. In words: Post-emergence herbicidal efficacy, Example 2 (L-glufosinate ammonium, saflufenacil and triclopyr). On the procedure:
(§1) Methodology: Trials were carried out to evaluate the efficacy of the combination comprising L-glufosinate ammonium and additional herbicides on Brachiaria decumbens weed.
(§2) The soil used was sandy clay loam-sand: 68.0%; silt: 8.0%; clay: 24.0%.
(§3) All treatments were in 3 replications per treatment with a spray volume of about 150 L/ha.
(§4) The expected efficacy of a combination of L-glufosinate ammonium and the other herbicides was calculated using the well-established Colby method. Any difference between the observed and “expected” efficacy could be attributed to synergy between the two compounds.
(§5) In the Colby method, the expected (or predicted) response of a combination of herbicides is calculated by taking the product of the observed response for each individual component of the combination when applied alone, divided by 100, and subtracting this value from the sum of the observed response for each component when applied alone. An unexpected enhancement in efficacy of the combination is then determined by comparing the observed response of the combination to the expected (or predicted) response as calculated from the observed response of each individual component alone. If the observed response of the combination is greater than the expected (or predicted) response, or stated conversely, if the difference between the observed and expected response is greater than zero, then the combination is said to be synergistic or unexpectedly effective (Colby, S. R., Weeds, 1967 (15), p. 20-22). The Colby method requires only a single dose of each herbicide applied alone and the mixture of both doses. The formula used to calculate the expected efficacy (EE) which was compared with the observed efficacy (OE) to determine the efficacy of the present disclosure is explained hereinbelow:
(§6) The expected efficacy for a combination of three active ingredients is as follows:
(§7) wherein, • A=Observed efficacy of active ingredient A at the same concentration as used in the mixture. • B=Observed efficacy of the active ingredient B at the same concentration as used in the mixture. • C=Observed efficacy of the active ingredient C at the same concentration as used in the mixture.
Experiment was conducted to assess the efficacy of the herbicidal combination comprising L-glufosinate ammonium, saflufenacil and triclopyr to control the weed Brachiaria decumbens.
The percentage efficacy was calculated after 3, 7, 14, 21, 28 and 35 days of application (DAA). The target weed was Brachiaria decumbens, and the concentration of the herbicide and the results are recorded in Table 3.

Assay [2] concerns Brachiaria decumbens. In words: Post-emergence herbicidal efficacy, Example 3 (L-glufosinate ammonium, saflufenacil and 2,4-D). On the procedure:
as §1, §2, §3, §4, §5, §6, §7
Experiment was conducted to assess the efficacy of the herbicidal combination comprising L-glufosinate ammonium, saflufenacil and 2,4-D to control the weed Brachiaria decumbens.
The target weed was Brachiaria decumbens, and the concentration of the herbicide and the results are recorded in Table 4.

Assay [3] relates to Brachiaria decumbens. In words: Post-emergence herbicidal efficacy, Example 1 (L-glufosinate ammonium and saflufenacil). On the procedure:
as §1, §2, §3, §4, §5
The expected efficacy for a combination of two active ingredients is as follows:
as §7
Experiment was conducted to assess the efficacy of the herbicidal combination comprising L-glufosinate ammonium and saflufenacil to control Brachiaria decumbens.
The percentage efficacy was calculated after 3, 7, 14, 21, 28 and 35 days of applications (DAA). The target weed was Brachiaria decumbens, and the results are recorded in Table 2.

Structures are written as SMILES.

As to `O=C(O)COc1nc(Cl)c(Cl)cc1Cl` [Triclopyr], the “Observed efficacy (%) of Triclopyr (228 g a.i./ha)” value was found to be 0% in the assay with Brachiaria decumbens [1] (3 DAA); 0% with Brachiaria decumbens [1] (7 DAA); 20% in the assay on Brachiaria decumbens [1] (14 DAA); 10% with Brachiaria decumbens [1] (21 DAA); 5% in the assay with Brachiaria decumbens [1] (28 DAA); 0% in the assay on Brachiaria decumbens [1] (35 DAA).

Consider `O=C(O)COc1ccc(Cl)cc1Cl` [2,4-D], for which the “Observed efficacy (%) of 2,4-D (228 g a.i./ha)” value in the assay with Brachiaria decumbens [2] (3 DAA), in the assay on Brachiaria decumbens [2] (7 DAA), with Brachiaria decumbens [2] (14 DAA), in the assay on Brachiaria decumbens [2] (21 DAA), with Brachiaria decumbens [2] (28 DAA) and with Brachiaria decumbens [2] (35 DAA) was 0% throughout.

Turning to `CP(=O)(O)CC[C@H](N)C(=O)O.N` [L-glufosinate ammonium], the “Observed efficacy (%) of L-glufosinate ammonium (150 g a.i./ha)” value (from here on “Observed efficacy (%) … (150 g a.i./ha)”) in the assay on Brachiaria decumbens [1] (3 DAA) is recorded as 65%; in the assay on Brachiaria decumbens [1] (7 DAA) it was 75%; in the assay on Brachiaria decumbens [1] (14 DAA), 75%; in the assay on Brachiaria decumbens [1] (21 DAA), 70%; in the assay on Brachiaria decumbens [1] (28 DAA), 65%; in the assay on Brachiaria decumbens [1] (35 DAA) it was 60%. Besides, the “Observed efficacy (%) … (150 g a.i./ha)” value with Brachiaria decumbens [2] (3 DAA) worked out at 65%; with Brachiaria decumbens [2] (7 DAA), 75%; in the assay with Brachiaria decumbens [2] (14 DAA), 75%; with Brachiaria decumbens [2] (21 DAA), 70%; in the assay on Brachiaria decumbens [2] (28 DAA) it was 65%; in the assay on Brachiaria decumbens [2] (35 DAA) it was 60%. Moreover, the “Observed efficacy (%) … (150 g a.i./ha)” value in the assay with Brachiaria decumbens [3] (3 DAA) came to 65%; with Brachiaria decumbens [3] (7 DAA), 75%; in the assay on Brachiaria decumbens [3] (14 DAA) it was 75%; with Brachiaria decumbens [3] (21 DAA) it was 70%; in the assay on Brachiaria decumbens [3] (28 DAA), 60%; in the assay with Brachiaria decumbens [3] (35 DAA), 55%.

Consider `CC(C)N(C)S(=O)(=O)NC(=O)c1cc(-n2c(=O)cc(C(F)(F)F)n(C)c2=O)c(F)cc1Cl` [Saflufenacil], for which the “Observed efficacy (%) of Saflufenacil (30 g a.i./ha)” value was 30% with Brachiaria decumbens [1] (3 DAA); 30% in the assay on Brachiaria decumbens [1] (7 DAA); 20% in the assay on Brachiaria decumbens [1] (14 DAA); 5% in the assay with Brachiaria decumbens [1] (21 DAA); 0% in the assay on Brachiaria decumbens [1] (28 DAA); 0% with Brachiaria decumbens [1] (35 DAA). Besides, the “Observed efficacy (%) of Saflufenacil (30 g a.i./ha)” value in the assay with Brachiaria decumbens [2] (3 DAA) is recorded as 30%; in the assay on Brachiaria decumbens [2] (7 DAA), 30%; with Brachiaria decumbens [2] (14 DAA), 20%; in the assay on Brachiaria decumbens [2] (21 DAA) it was 5%; with Brachiaria decumbens [2] (28 DAA) it was 0%; in the assay with Brachiaria decumbens [2] (35 DAA) it was 0%. Besides, the “Observed efficacy (%) of Saflufenacil (30 g a.i./ha)” value with Brachiaria decumbens [3] (3 DAA) amounted to 30%; with Brachiaria decumbens [3] (7 DAA), 30%; in the assay with Brachiaria decumbens [3] (14 DAA), 25%; in the assay with Brachiaria decumbens [3] (21 DAA), 10%; in the assay with Brachiaria decumbens [3] (28 DAA), 0%; with Brachiaria decumbens [3] (35 DAA), 0%.
